In ChEMBL document CHEMBL1201862, “PubChem BioAssay data set” (2004):
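48-hour exposure; five concentrations; linearly interpolated endpoints. At the GI50, growth is halved.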 Active and inactive are the calls of the source. Rule as the data show it: active = GI50 up to about 1.1 µM and inactive = higher.

How the values were obtained:
Experiment in all cases: DTP human tumour cell line panel, 48 h
SK-MEL-28 = test system: SK-MEL-28
HCT-15 = test system: HCT-15
NCI-H23 = test system: NCI-H23
SN12C = test system: SN12C
HOP-62 = test system: HOP-62
SF-539 = test system: SF-539
MOLT-4 = test system: MOLT-4
CAKI-1 = test system: CAKI-1
NCI-H522 = test system: NCI-H522
Hs-578T = test system: Hs-578T
COLO 205 = test system: COLO 205
MCF7 = test system: MCF7
NCI/ADR-RES = test system: NCI/ADR-RES
UO-31 = test system: UO-31
T47D = test system: T47D
TK-10 = test system: TK-10
IGROV-1 = test system: IGROV-1
M14 = test system: M14
OVCAR-5 = test system: OVCAR-5
OVCAR-8 = test system: OVCAR-8
OVCAR-3 = test system: OVCAR-3
K562 = test system: K562
RXF 393 = test system: RXF 393
KM12 = test system: KM12
BT-549 = test system: BT-549
DU-145 = test system: DU-145
ACHN = test system: ACHN
UACC-62 = test system: UACC-62
SK-MEL-2 = test system: SK-MEL-2
RPMI-8226 = test system: RPMI-8226
MDA-N = test system: MDA-N
HCC 2998 = test system: HCC 2998
SW-620 = test system: SW-620
EKVX = test system: EKVX
MDA-MB-231 = test system: MDA-MB-231
SF-268 = test system: SF-268
A498 = test system: A498
HL-60 = test system: HL-60
LOX IMVI = test system: LOX IMVI
SR = test system: SR
NCI-H460 = test system: NCI-H460
SK-MEL-5 = test system: SK-MEL-5
A549 = test system: A549
786-0 = test system: 786-0
MDA-MB-435 = test system: MDA-MB-435
PC-3 = test system: PC-3
HCT-116 = test system: HCT-116
UACC-257 = test system: UACC-257
NCI-H226 = test system: NCI-H226
SF-295 = test system: SF-295
SNB-19 = test system: SNB-19
HT-29 = test system: HT-29
CCRF-CEM = test system: CCRF-CEM
SK-OV-3 = test system: SK-OV-3
OVCAR-4 = test system: OVCAR-4
Malme-3M = test system: Malme-3M
U-251 = test system: U-251
SNB-75 = test system: SNB-75
HOP-92 = test system: HOP-92

With N#Cc1ccc(-c2nc3c(N)ncnc3o2)cc1 the GI50 (SK-MEL-28) was > 100 µM (inactive), the GI50 (HCT-15) was greater than 100 µM and the GI50 (NCI-H23) was > 100 µM (inactive). The GI50 (SN12C) was > 100 µM (inactive), the GI50 (HOP-62) was 84.7 µM (inactive) and the GI50 (SF-539) was > 100 µM (inactive). For the same molecule, the GI50 (MOLT-4) was > 100 µM (inactive), the GI50 (CAKI-1) was > 100 µM (inactive) and the GI50 (NCI-H522) was > 100 µM (inactive). For the same molecule, the GI50 (Hs-578T) was > 100 µM (inactive), the GI50 (COLO 205) was > 100 µM (inactive) and the GI50 (MCF7) was > 100 µM (inactive). The GI50 (NCI/ADR-RES) was > 100 µM (inactive), the GI50 (UO-31) was > 100 µM (inactive) and the GI50 (T47D) was > 100 µM (inactive). For the same molecule, the GI50 (TK-10) was > 100 µM (inactive), the GI50 (IGROV-1) was > 100 µM (inactive) and the GI50 (M14) was > 100 µM (inactive). For the same molecule, the GI50 (OVCAR-5) was > 100 µM (inactive), the GI50 (OVCAR-8) was > 100 µM (inactive) and the GI50 (OVCAR-3) was > 100 µM (inactive). The GI50 (K562) was > 100 µM (inactive), the GI50 (RXF 393) was > 100 µM (inactive) and the GI50 (KM12) was > 100 µM (inactive). The GI50 (BT-549) was > 100 µM (inactive), the GI50 (DU-145) was > 100 µM (inactive) and the GI50 (ACHN) was 75 µM (inactive). For the same molecule, the GI50 (UACC-62) was > 100 µM (inactive), the GI50 (SK-MEL-2) was > 100 µM (inactive) and the GI50 (RPMI-8226) was > 100 µM (inactive). The GI50 (MDA-N) was > 100 µM (inactive), the GI50 (HCC 2998) was > 100 µM (inactive) and the GI50 (SW-620) was > 100 µM (inactive). The GI50 (EKVX) was > 100 µM (inactive), the GI50 (MDA-MB-231) was > 100 µM (inactive) and the GI50 (SF-268) was > 100 µM (inactive). For the same molecule, the GI50 (A498) was > 100 µM (inactive), the GI50 (HL-60) was > 100 µM (inactive) and the GI50 (LOX IMVI) was > 100 µM (inactive). The GI50 (SR) was > 100 µM (inactive), the GI50 (NCI-H460) was > 100 µM (inactive) and the GI50 (SK-MEL-5) was > 100 µM (inactive). For the same molecule, the GI50 (A549) was > 100 µM (inactive), the GI50 (786-0) was 63.8 µM (inactive) and the GI50 (MDA-MB-435) was > 100 µM (inactive). The GI50 (PC-3) was > 100 µM (inactive), the GI50 (HCT-116) was > 100 µM (inactive) and the GI50 (UACC-257) was > 100 µM (inactive). The GI50 (NCI-H226) was > 100 µM (inactive), the GI50 (SF-295) was > 100 µM (inactive) and the GI50 (SNB-19) was > 100 µM (inactive). For the same molecule, the GI50 (HT-29) was > 100 µM (inactive) and the GI50 (CCRF-CEM) was > 100 µM (inactive).

CC(C)(C)OC(=O)C1CCC/C1=N/Nc1ccc([N+](=O)[O-])cc1[N+](=O)[O-] (centres undefined) was tested, and the GI50 (SK-MEL-28) was 54.7 µM (inactive), the GI50 (HCT-15) was 39.4 µM and the GI50 (NCI-H23) was 18 µM (inactive). For the same molecule, the GI50 (SN12C) was 40.7 µM (inactive), the GI50 (HOP-62) was 45.6 µM (inactive) and the GI50 (SK-OV-3) was 43 µM (inactive). The GI50 (OVCAR-4) was 74.5 µM (inactive), the GI50 (MOLT-4) was 17.7 µM (inactive) and the GI50 (Malme-3M) was 65.5 µM (inactive). The GI50 (CAKI-1) was 39.4 µM (inactive), the GI50 (NCI-H522) was 18.8 µM (inactive) and the GI50 (Hs-578T) was 48.2 µM (inactive). The GI50 (COLO 205) was 27 µM (inactive), the GI50 (MCF7) was 30 µM (inactive) and the GI50 (NCI/ADR-RES) was 26.1 µM (inactive). The GI50 (UO-31) was 17.6 µM (inactive), the GI50 (T47D) was 16.3 µM (inactive) and the GI50 (TK-10) was 43.7 µM (inactive). The GI50 (IGROV-1) was 25.5 µM (inactive), the GI50 (M14) was 39.6 µM (inactive) and the GI50 (OVCAR-5) was 43.3 µM (inactive). For the same molecule, the GI50 (OVCAR-8) was 27.5 µM (inactive), the GI50 (OVCAR-3) was 46.6 µM (inactive) and the GI50 (K562) was 15.7 µM (inactive). The GI50 (RXF 393) was 33.2 µM (inactive), the GI50 (KM12) was 54.7 µM (inactive) and the GI50 (BT-549) was 24.9 µM (inactive). For the same molecule, the GI50 (DU-145) was 47.2 µM (inactive), the GI50 (ACHN) was 45.3 µM (inactive) and the GI50 (UACC-62) was 26.9 µM (inactive). The GI50 (RPMI-8226) was 32 µM (inactive), the GI50 (U-251) was 22 µM (inactive) and the GI50 (SNB-75) was 19.1 µM (inactive). The GI50 (MDA-N) was 30.8 µM (inactive), the GI50 (HCC 2998) was 42.9 µM (inactive) and the GI50 (SW-620) was 27.9 µM (inactive). The GI50 (EKVX) was 24.7 µM (inactive), the GI50 (HOP-92) was 47.1 µM (inactive) and the GI50 (MDA-MB-231) was 20 µM (inactive). The GI50 (SF-268) was 41.8 µM (inactive), the GI50 (A498) was 13 µM (inactive) and the GI50 (HL-60) was 44.3 µM (inactive). The GI50 (LOX IMVI) was 17.7 µM (inactive), the GI50 (SR) was 26.1 µM (inactive) and the GI50 (NCI-H460) was 37.9 µM (inactive). For the same molecule, the GI50 (SK-MEL-5) was 13.9 µM (inactive), the GI50 (A549) was 31.9 µM (inactive) and the GI50 (786-0) was 23 µM (inactive). For the same molecule, the GI50 (MDA-MB-435) was 21.2 µM (inactive), the GI50 (PC-3) was 10.3 µM (inactive) and the GI50 (HCT-116) was 21.4 µM (inactive). The GI50 (NCI-H226) was 21.3 µM (inactive), the GI50 (SF-295) was 25 µM (inactive) and the GI50 (SNB-19) was 41.5 µM (inactive). For the same molecule, the GI50 (HT-29) was 36.5 µM (inactive) and the GI50 (CCRF-CEM) was 19.7 µM (inactive).
